Assay results from patent publication US20250025442A1, “BCAA-Lowering Compounds for Prevention and/or Treatment of Alzheimer's Disease and Related Disorders” (Texas Tech University System, priority 2020, published 2025).

What was measured:
5xFAD mice = experiment: BT2 daily ip injection for one month in 5xFAD mice; assay type: in vivo
Source text: These transgenic mice develop amyloid plaques and neuroinflammation at as early as 1.5-2 months of age^7, thus allowing the inventors to investigate the role of BCAAs in AD-related brain pathology when they are young. […] Next, the inventors examined amyloid and Tau pathology in the cortex.

plasma BCAAs = details: mice; cited from earlier work
BCKDH kinase = details: cited from earlier work
[1] = CD-1 mice, in vivo pharmacokinetics study; cited from earlier work
[2] = in hepatocytes; cited from earlier work

Compound | increase of tyrosine hydroxylase (TH) protein level (5xFAD mice; 5xFAD mice, p=0.07) [%] | blood glucose (5xFAD mice; BT2-treated vs vehicle-treated 5xFAD mice) | Aβ-42 level (5xFAD mice; cortex, 5xFAD mice) | elevated Aβ-degrading enzyme IDE (5xFAD mice; cortex, 5xFAD mice) [%] | increase of DA (5xFAD mice; cortex, BT2-treated 5xFAD mice) [%] | increase of DOPAC (5xFAD mice; cortex, BT2-treated 5xFAD mice) [%] | GSK3β (5xFAD mice; cortex, after BT2 treatment) | BACE1 (β-secretase) (5xFAD mice; hippocampus, 5xFAD mice) | NE level (5xFAD mice; hippocampus, 5xFAD mice) | mRNA of NF-κB (inflammation) (5xFAD mice; hippocampus, 5xFAD mice) | mRNA of PERK (ER stress) (5xFAD mice; hippocampus, 5xFAD mice) | higher 5-HT (5xFAD mice; hippocampus, after BT2 treatment, p<0.05) [%] | higher DA (5xFAD mice; hippocampus, after BT2 treatment, p=0.08) [%] | plasma BCAAs (plasma BCAAs) | inhibit BCKDH kinase (BCKDH kinase) | clearance rate [1] [mL/min] | Half-life [2] [h]
O=C(O)c1sc2cc(Cl)ccc2c1Cl [BT2, 3,6-dichlorobenzo[b]thiophene-2-carboxylic acid] | ~400 | markedly decrease | completely rescued | 70 | 180 | 300 | significantly reduced | markedly lowered | fully restored | decreased | decreased | 50 | 40 | lowering plasma BCAAs | effectively inhibit |  | 
(S)-α-chloro-phenylpropionic acid [(S)-CPP] |  |  |  |  |  |  |  |  |  |  |  |  |  | lowering plasma BCAAs | effectively inhibit | 0.113 | ~7
